Measured values taken from patent US10077289B2, “Cyclosporins modified on the MeBmt sidechain by heterocyclic rings” (priority 2015, dated 2018).
Values after ≈ are worked out from the molar mass of the structure shown. Where two headings read alike, the source gives them in different places.

Assays:
[1] = target: Human recombinant cyclophilin A (Cyp A) (Homo sapiens (Human), UniProt P62937); experiment: Protease-free PPIase assay
Protocol: Protease-Free PPIase Assay
The protease-free PPIase assay measures the rate of cis to trans conversion of a peptide substrate catalyzed by the enzyme cyclophilin A. Addition of a cyclophilin A inhibitor (e.g., a test compound) slows the catalyzed rate and a Ki value is obtained.
35 mM HEPES pH 7.8, filtered through a 0.2 μm filter. 50 μM DTT was added prior to use each day and then the buffer was stored on ice.
Human recombinant cyclophilin A (Cyp A) (Sigma C3805) enzyme was diluted to 1 μM with enzyme dilution buffer (20 mM HEPES pH 7.8, 40% glycerol, 50 μM DTT and 1 μM BSA) and stored at −20° C.
Succinimide-Ala-Ala-Pro-Phe-p-nitroanilide (SUC-AAPF-pNA) (from Bachem AG, L-1400), 20 mg/ml prepared in 0.5 M LiCl in trifluoroethanol.
The temperature is monitored by the use of a temperature probe. To prevent UV degradation of test compounds, the light below 290 nm was blocked using a glass slide in the light path. 1.5 ml of the assay buffer was put into a 3 ml quartz cuvette and cooled to 10.0±0.1° C. while stirring (vigorous but not so fast as to produce cavitation). The inhibitor was diluted in 100% DMSO, and then added to the assay to a maximum final concentration of 0.5% DMSO in the assay. A blank spectrum was obtained, then 3 μL of enzyme was added (2 nM final concentration) and then 3 μL substrate (60 μM final concentration) added. The absorbance was measured at 330 nm for 300 s or 500 s for blank runs (NOTE: the substrate must be added in one quick injection and the measurements started immediately to minimize mixing errors).
A first order rate equation was fitted to the absorbance data, for each concentration of inhibitor, to obtain the rate constant (the first 10 to 15 seconds were excluded as mixing causes errors in this portion of curve). The catalytic rate was calculated from the enzymatic rate constant minus the background rate constant. An exponential curve was generated using the catalytic rate constants versus the inhibitor concentration to obtain the Ki value for the inhibitor. The Ki value is indicative of the binding affinity between the test compound and cyclophilin A.

[2] = target: calcineurin/cyclophilin A (Homo sapiens (Human), UniProt P62937+P63098+Q08209); experiment: Calcineurin Phosphatase (CaN) Assay (+CypA); type: biochemical; conditions: in the presence of Cyp A, 1:1 complex with inhibitor; read-out: Calcineurin Phosphatase (CaN) Assay (+CypA) IC50
Excerpt: Calcineurin Phosphatase (CaN) Assay
The calcineurin phosphatase assay is a means for estimating the immunosuppressive potential of a test compound. Calcineurin is a serine-threonine protein phosphatase that on activation dephosphorylates members of the nuclear factor of activated T cells (NFAT), which are important in T lymphocyte activation.
To investigate the immunosuppressive potential of exemplary compounds of Formula I, which are cyclosporin analogs, their ability to inhibit calcineurin activity was measured in the presence and absence of Cyp A.
The CaN assay kit used is based on a colorimetric assay for measuring calcineurin phosphatase activity, and it is commercially available (Enzo Life Sciences and Calbiochem). Calmodulin is also required for calcineurin activity and RII phosphopeptide is used as an efficient peptide substrate for calcineurin. […] The detection of free phosphate released is based on the classic Malachite green assay.
Enzo Life Sciences CaN Assay Kit: BML-AK804
Malachite Green: BIOMOL Green™ reagent
Calmodulin (Human, recombinant): was thawed on ice, diluted 1:50 with 2× assay buffer, and then stored on ice.
Calcineurin: was thawed quickly, stored on ice immediately, diluted 1:12.5 with 1× assay buffer, and then stored on ice.
R-II Substrate: 915 μL ultrapure water (UPW) was added to the 1.5 mg vial substrate to give a final concentration of 0.75 mM.
Inhibitors: 2.5 mM inhibitor in 100% DMSO.
Cyp A: recombinant human CypA (Sigma C3805), 1 mg/ml; Recombinant 6-His tagged CypA prepared by the University of Edinburgh was also used.
Inhibitor dilutions: inhibitor compounds were diluted in UPW in polypropylene low-binding 96 well plates at 5× the final assay concentration.
Assay Setup: using the half area 96 well plates supplied with the kit, 10 μl UPW was added to duplicate wells to provide the non-inhibited control. 10 μl of the inhibitor or the inhibitor/Cyp A complex was added to the appropriate sample wells. 25 μl of the 2× assay buffer with CaM was added to all wells, then 5 μl of CaN was added to all wells (40 U per well final concentration) except duplicate ‘no calcineurin blank’ wells to which 5 μL 1× assay buffer was added. The assay plate was placed in an oven at 30° C. for 15 minutes to equilibrate to the reaction temperature. The reaction was started by the addition of 10 μl RII-peptide (0.15 mM final concentration). The reaction was allowed to proceed at 30° C. for a time period in which the reaction is linear for about 60 minutes. The reaction was then terminated by adding 100 μl of the Malachite Green reagent. The color was allowed to develop for 15-30 minutes at room temperature before the absorbance at 620 nm was measured using a plate reader (Molecular Devices—SpectraMax M5). The data were analyzed by subtracting ‘no Calcineurin blank’ from all the absorbance readings and plotting the background corrected absorbances against Log10 inhibitor concentration. A sigmoidal-dose response curve was fitted to the data using GraphPad Prism Software.
It exerts its immunosuppressive activity by binding to cyclophilin A to form a complex, which then binds to calcineurin and thereby inhibits calcineurin activity.

[3] = Water Solubility Assay (measured in pH 7.8 buffer); type: physicochemical; conditions: kinetic from dmso stock, 25 °C
Protocol: Water Solubility Assay (Measured in pH 7.8 Buffer)
The aqueous solubility of a compound of Formula I in buffer (pH 7.8) was measured by recording the onset of precipitation of the compound as a function of increasing concentration. The onset of precipitation, if it occurred, was detected by an increase in absorbance at 650 nm.
Assay Buffer: 35 mM HEPES pH 7.8
Stock solutions of Control and Test Compounds: 10 mM in 100% DMSO.
10 mM stock solutions of control and test compounds were prepared in 100% DMSO.
Assay buffer (247.5 μl) was placed into flat bottomed transparent 96-well plate. For blank samples DMSO (2.5 μl) was added. For test and control samples 2.5 μl of the appropriate DMSO dilution stocks were added to the appropriate well. All test and control compounds were performed in triplicate.
The plates were sealed with adhesive plate seal and shaken at 250 rpm at 25° C. for 18 h on a plate shaker. After incubation the plate seals were taken off and any bubbles observed in wells removed. The plates were read on a SpectraMaxM5 with a 5 s pre-shake at 650 nm. Data files were transferred to the appropriate worksheet and the solubility range of the compounds was calculated from the data. The values shown in the Tables indicate the concentration in μM (micromolar) at which the compound remains in solution.

SMILES | Ki ([1]; read-out: Protease-free PPIase Assay Ki, human recombinant Cyp A, 10 °C) [nM] | IC50 [2] [nM] | solubility at 18 h ([3]; 35 mM HEPES buffer pH 7.8, aqueous buffer, 35 mM HEPES pH 7.8, 1% DMSO, 18 h, read-out: Water Solubility Assay, concentration at which the compound remains in solution) [µM] | Ki [1] [nM] | solubility at 18 h ([3]; pH 7.8, aqueous buffer) [µM]
CC[C@H]1NC(=O)[C@@H]([C@H](O)[C@H](C)CCCc2ccc(OC)cn2)N(C)C(=O)[C@@H](C(C)C)N(C)C(=O)[C@@H](CC(C)C)N(C)C(=O)[C@@H](CC(C)C)N(C)C(=O)[C@H](C)NC(=O)[C@@H](C)NC(=O)[C@@H](CC(C)C)N(C)C(=O)[C@@H](C(C)C)NC(=O)[C@H](CC(C)C)N(C)C(=O)[C@@H](C)N(C)C1=O [Compound 16, [(2S,3R,4R)-3-Hydroxy-4-methyl-2-(methylamino)-7-(5-methoxy-pyridin-2-yl)-heptanoic acid]^1 [(R)-methyl-Sar]^3 cyclosporin A] | 0.72 | > 10000 | 25 to 50 (≈ 32.8 to 65.6 µg/mL) |  | 
CC[C@H]1NC(=O)[C@@H]([C@H](O)[C@H](C)CCCc2ccnc(C)c2)N(C)C(=O)[C@@H](C(C)C)N(C)C(=O)[C@@H](CC(C)C)N(C)C(=O)[C@@H](CC(C)C)N(C)C(=O)[C@H](C)NC(=O)[C@@H](C)NC(=O)[C@@H](CC(C)C)N(C)C(=O)[C@@H](C(C)C)NC(=O)[C@H](CC(C)C)N(C)C(=O)[C@@H](C)N(C)C1=O [Compound 17, [(2S,3R,4R)-3-Hydroxy-4-methyl-2-(methylamino)-7-(2-methyl-pyridin-4-yl)-heptanoic acid]^1 [(R)-methyl-Sar]^3 cyclosporin A] |  | 9250 |  | 3.9 | 25 to 50 (≈ 32.4 to 64.8 µg/mL)
CC[C@H]1NC(=O)[C@@H]([C@H](O)[C@H](C)CCCc2cnccn2)N(C)C(=O)[C@@H](C(C)C)N(C)C(=O)[C@@H](CC(C)C)N(C)C(=O)[C@@H](CC(C)C)N(C)C(=O)[C@H](C)NC(=O)[C@@H](C)NC(=O)[C@@H](CC(C)C)N(C)C(=O)[C@@H](C(C)C)NC(=O)[C@H](CC(C)C)N(C)C(=O)[C@@H](C)N(C)C1=O [Compound 18, [(2S,3R,4R)-3-Hydroxy-4-methyl-2-(methylamino)-7-(pyrazin-2-yl)-heptanoic acid]^1 [(R)-methyl-Sar]^3 cyclosporin A] |  | 5800 |  | 2.2 | 50 to 75 (≈ 64.1 to 96.2 µg/mL)
CC[C@H]1NC(=O)[C@@H]([C@H](O)[C@H](C)CCCc2cn(C)cn2)N(C)C(=O)[C@@H](C(C)C)N(C)C(=O)[C@@H](CC(C)C)N(C)C(=O)[C@@H](CC(C)C)N(C)C(=O)[C@H](C)NC(=O)[C@@H](C)NC(=O)[C@@H](CC(C)C)N(C)C(=O)[C@@H](C(C)C)NC(=O)[C@H](CC(C)C)N(C)C(=O)[C@@H](C)N(C)C1=O [Compound 20, [(2S,3R,4R)-3-Hydroxy-7-(1-methyl-1H-imidazol-4-yl)-4-methyl-2-(methylamino)heptanoic acid]^1 [(R)-methyl-Sar]^3 cyclosporin A] |  | > 10000 |  | 5.7 | > 100
CC[C@H]1NC(=O)[C@@H]([C@H](O)[C@H](C)CCCc2cccnn2)N(C)C(=O)[C@@H](C(C)C)N(C)C(=O)[C@@H](CC(C)C)N(C)C(=O)[C@@H](CC(C)C)N(C)C(=O)[C@H](C)NC(=O)[C@@H](C)NC(=O)[C@@H](CC(C)C)N(C)C(=O)[C@@H](C(C)C)NC(=O)[C@H](CC(C)C)N(C)C(=O)[C@@H](C)N(C)C1=O [Compound 21, [(2S,3R,4R)-3-Hydroxy-4-methyl-2-(methylamino)-7-(pyridazin-3-yl)-heptanoic acid]^1 [(R)-methyl-Sar]^3 cyclosporin A] |  | > 10000 |  | 3.2 | > 100
CC[C@H]1NC(=O)[C@@H]([C@H](O)[C@H](C)CCCc2ncccn2)N(C)C(=O)[C@@H](C(C)C)N(C)C(=O)[C@@H](CC(C)C)N(C)C(=O)[C@@H](CC(C)C)N(C)C(=O)[C@H](C)NC(=O)[C@@H](C)NC(=O)[C@@H](CC(C)C)N(C)C(=O)[C@@H](C(C)C)NC(=O)[C@H](CC(C)C)N(C)C(=O)[C@@H](C)N(C)C1=O [Compound 22, [(2S,3R,4R)-3-Hydroxy-4-methyl-2-(methylamino)-7-(pyrimidin-2-yl)-heptanoic acid]^1 [(R)-methyl-Sar]^3 cyclosporin A] |  | 1160 |  | 3.2 | > 100
CC[C@H]1NC(=O)[C@@H]([C@H](O)[C@H](C)CCCc2ccnn2C)N(C)C(=O)[C@@H](C(C)C)N(C)C(=O)[C@@H](CC(C)C)N(C)C(=O)[C@@H](CC(C)C)N(C)C(=O)[C@H](C)NC(=O)[C@@H](C)NC(=O)[C@@H](CC(C)C)N(C)C(=O)[C@@H](C(C)C)NC(=O)[C@H](CC(C)C)N(C)C(=O)[C@@H](C)N(C)C1=O [Compound 23, [(2S,3R,4R)-3-Hydroxy-4-methyl-2-(methylamino)-7-(2-methylpyrazol-3-yl)-heptanoic acid]^1 [(R)-methyl-Sar]^3 cyclosporin A] |  | 3340 |  | 2.1 | > 100
CC[C@H]1NC(=O)[C@@H]([C@H](O)[C@H](C)CCCc2ccn(C)n2)N(C)C(=O)[C@@H](C(C)C)N(C)C(=O)[C@@H](CC(C)C)N(C)C(=O)[C@@H](CC(C)C)N(C)C(=O)[C@H](C)NC(=O)[C@@H](C)NC(=O)[C@@H](CC(C)C)N(C)C(=O)[C@@H](C(C)C)NC(=O)[C@H](CC(C)C)N(C)C(=O)[C@@H](C)N(C)C1=O [Compound 25, [(2S,3R,4R)-3-Hydroxy-4-methyl-2-(methylamino)-7-(1-methylpyrazol-3-yl)heptanoic acid]^1 [(R)-methyl-Sar]^3 cyclosporin A] |  | 1460 |  | 3.8 | > 100
